EC50 data for 31 compounds are collected here from patent US20240166652A1, “MODULATORS OF THE INTEGRATED STRESS PATHWAY” (Calico Life Sciences LLC, priority 2017, published 2024).

The assay has as its system ATF4 luciferase reporter in HEK293T cells. The assay can be described thus: ATF4-Luc assay (ATF4 luciferase reporter, tunicamycin-treated HEK293T cells). It is filed as cell-based, human. The conditions noted are these: Homo sapiens, HEK-293T; HEK293T cells carrying the ATF4 luciferase reporter, 1 μg/mL tunicamycin, 7 hours.

A value given as a limit tells only on which side of the number the result lay.

With `COc1cc(OC)nc(OCC(=O)NC23CCC(NC(=O)COc4ccc(Cl)c(F)c4)(CC2)C[C@@H]3O)n1` [Compound 498, 2-(4-chloro-3-fluorophenoxy)-N-[(3S)-4-{2-[(4,6-dimethoxypyrimidin-2-yl)oxy]acetamido}-3-hydroxybicyclo[2.2.2]octan-1-yl]acetamide], the EC50 was in the range of 250 to 500 nM.

With `O=C(COc1ccc(Cl)c(F)c1)NC12CCC(NC(=O)COc3ccc(Cl)c(F)c3)(CC1)C(C(=O)O)C2` (stereo not shown) [Compound 390, 1,4-bis[2-(4-chloro-3-fluorophenoxy)acetamido]bicyclo[2.2.2]octane-2-carboxylic Acid], the EC50 lay within 50 to 250 nM. For the compound `Cc1cccc(OCC(=O)NC23CCC(NC(=O)COc4ccc(Cl)c(F)c4)(CC2)C[C@@H]3O)c1` [Compound 509, 2-(4-chloro-3-fluorophenoxy)-N-{(3S)-3-hydroxy-4-[2-(3-methylphenoxy)acetamido]bicyclo[2.2.2]octan-1-yl}acetamide], the EC50 is below 10 nM. On to `COC(=O)[C@H]1CC2(NC(=O)COc3ccc(Cl)c(F)c3)CCC1(NC(=O)COc1ccc(Cl)c(F)c1)CC2` [Compound 562, methyl (2S)-1,4-bis[2-(4-chloro-3-fluorophenoxy)acetamido]bicyclo[2.2.2]octane-2-carboxylate], for which the EC50 is below 10 nM. As to `O=C(COc1cc(F)c2cn[nH]c2c1)NC12CCC(NC(=O)COc3ccc(Cl)c(F)c3)(CC1)[C@@H](O)C2` [Compound 727, 2-(4-chloro-3-fluorophenoxy)-N-[(2S)-4-{2-[(4-fluoro-1H-indazol-6-yl)oxy]acetamido}-2-hydroxybicyclo[2.2.2]octan-1-yl]acetamide], the EC50 was below 10 nM. Take `Cc1cc(OCC(=O)NC23CCC(NC(=O)COc4ccc(Cl)c(F)c4)(CC2)[C@@H](O)C3)cc(C)c1C` [Compound 469, 2-(4-chloro-3-fluorophenoxy)-N-{(2S)-2-hydroxy-4-[2-(3,4,5-trimethylphenoxy)acetamido]bicyclo[2.2.2]octan-1-yl}acetamide]: the EC50 is above 2000 nM. Consider `O=C(COc1cccnc1)NC12CCC(NC(=O)COc3ccc(Cl)c(F)c3)(CC1)[C@@H](O)C2` [Compound 607, 2-(4-chloro-3-fluorophenoxy)-N-[(2S)-2-hydroxy-4-{2-[(pyridin-3-yl)oxy]acetamido}bicyclo[2.2.2]octan-1-yl]acetamide], for which the EC50 lay within 50 to 250 nM. Consider `O=C(COc1ccc(Cl)c(F)c1)NC12CCC(NC(=O)COc3ccc(Cl)c(F)c3)(CC1)C(N1CC(F)(F)C1)C2` (stereo not shown) [Compound 715, N,N′-[2-(3,3-difluoroazetidin-1-yl)bicyclo[2.2.2]octane-1,4-diyl]bis[2-(4-chloro-3-fluorophenoxy)acetamide]], for which the EC50 is 10 to 50 nM. For the compound `O=C(COc1ccnc(C(F)F)c1)NC12CC(NC(=O)COc3ccc(Cl)c(F)c3)(C1)C2` [Compound 378, 2-(4-chloro-3-fluorophenoxy)-N-[3-(2-{[2-(difluoromethyl)pyridin-4-yl]oxy}acetamido)bicyclo[1.1.1]pentan-1-yl]acetamide], the EC50 was 10 to 50 nM. Take `O=C(COc1ccc(F)c(C(F)F)c1)NC12CCC(NC(=O)COc3ccc(Cl)cc3)(CC1)[C@@H](O)C2` [Compound 774, 2-(4-chlorophenoxy)-N-[(2S)-4-{2-[3-(difluoromethyl)-4-fluorophenoxy]acetamido}-2-hydroxybicyclo[2.2.2]octan-1-yl]acetamide]: the EC50 is below 10 nM.

For `O=C(COc1ccc(Cl)c(F)c1)NC12CCC(NC(=O)COc3cnc(C(F)F)cn3)(CC1)[C@@H](O)C2` [Compound 382, 2-(4-chloro-3-fluorophenoxy)-N-[(3S)-4-(2-{[5-(difluoromethyl)pyrazin-2-yl]oxy}acetamido)-3-hydroxybicyclo[2.2.2]octan-1-yl]acetamide], the EC50 was above 2000 nM.

Take `O=C(COc1ccc(Cl)cc1)NC12CCC(NC(=O)COc3ccc4c(c3)OC(F)(F)O4)(CC1)CC2` [Compound 742, 2-(4-chlorophenoxy)-N-(4-{2-[(2,2-difluoro-2H-1,3-benzodioxol-5-yl)oxy]acetamido}bicyclo[2.2.2]octan-1-yl)acetamide]: the EC50 was below 10 nM. `Cc1ccc(OCC(=O)NC23CCC(NC(=O)COc4ccc(Cl)cc4)(CC2)[C@@H](O)C3)cc1` [Compound 787, 2-(4-chlorophenoxy)-N-{(2S)-2-hydroxy-4-[2-(4-methylphenoxy)acetamido]bicyclo[2.2.2]octan-1-yl}acetamide]: the EC50 was below 10 nM. On to `CS(=O)(=O)c1ccc(OCC(=O)NC23CCC(NC(=O)COc4ccc(Cl)c(F)c4)(CC2)[C@@H](O)C3)cc1` [Compound 476, 2-(4-chloro-3-fluorophenoxy)-N-[(2S)-2-hydroxy-4-{2-[4-(methanesulfonyl)phenoxy]acetamido}bicyclo[2.2.2]octan-1-yl] acetamide], for which the EC50 fell in the range of 50 to 250 nM. For `CN(C(=O)COc1ccc(Cl)c(F)c1)C12CCC(NC(=O)COc3ccc(Cl)c(F)c3)(CC1)[C@@H](O)C2` [Compound 444, 2-(4-chloro-3-fluorophenoxy)-N-{(3S)-4-[2-(4-chloro-3-fluorophenoxy)acetamido]-3-hydroxybicyclo[2.2.2]octan-1-yl}-N-methylacetamide] the value was 10 to 50 nM; for `CO[C@H]1C[C@]2(NC(=O)COc3ccc(Cl)c(F)c3)CC[C@@]1(NC(=O)COc1ccc(Cl)c(F)c1)CC2=O` (racemic) [Compound 555, rac-N,N′-[(1R,2S,4R)-2-methoxy-5-oxobicyclo[2.2.2]octane-1,4-diyl]bis[2-(4-chloro-3-fluorophenoxy)acetamide]], 10 to 50 nM.

For the compound `O=C(COc1cc(F)c2cn[nH]c2c1)NC12CCC(NC(=O)COc3cc(F)c4cn[nH]c4c3)(CC1)[C@@H](O)C2` [Compound 710, N,N′-[(2S)-2-hydroxybicyclo[2.2.2]octane-1,4-diyl]bis{2-[(4-fluoro-1H-indazol-6-yl)oxy]acetamide}], the EC50 was below 10 nM. In the case of `O=C(COc1ccc(Cl)cc1)NC12CC(NC(=O)COc3cccc(Cl)c3)(C1)C2` [Compound 118, 2-(4-chlorophenoxy)-N-{3-[2-(3-chlorophenoxy)acetamido]bicyclo-[1.1.1]pentan-1-yl}acetamide], the EC50 fell in the range of 10 to 50 nM.

For `O=C(COc1ccc(Cl)c(F)c1)N[C@]12CC[C@](NC(=O)COc3ccc(Cl)c(F)c3)(C1)[C@@H](O)C2` (racemic) [Compound 585, rac-N,N′-[(1S,2S,4R)-2-hydroxybicyclo[2.2.1]heptane-1,4-diyl]bis[2-(4-chloro-3-fluorophenoxy)acetamide]], the EC50 was below 10 nM.

With `O=C(COc1ccc(C(F)F)nc1)NC12CC(NC(=O)COc3ccc(Cl)c(F)c3)(C1)C2` [Compound 399, 2-(4-chloro-3-fluorophenoxy)-N-[3-(2-{[6-(difluoromethyl)pyridin-3-yl]oxy}acetamido)bicyclo[1.1.1]pentan-1-yl]acetamide], the EC50 was in the range of 10 to 50 nM.

As to `O=C(COc1ccc(F)c(Cl)c1)NC12CC(NC(=O)COc3ccc(F)c(Cl)c3)(C1)C2` [Compound 547, N,N′-(bicyclo[1.1.1]pentane-1,3-diyl)bis[2-(3-chloro-4-fluorophenoxy)acetamide]], the EC50 was below 10 nM. Turning to `O=C(COc1ccc(Cl)c(F)c1)NC12CC(NC(=O)COc3ccc(Cl)c(CO)c3)(C1)C2` [Compound 224, 2-(4-chloro-3-fluorophenoxy)-N-(3-{2-[4-chloro-3-(hydroxymethyl)phenoxy]-acetamido}bicyclo[1.1.1]pentan-1-yl)acetamide], the EC50 lay in the range of 50 to 250 nM. As to `O=C(COc1ccc(Cl)c(F)c1)NC12CCC(NC(=O)COc3ccc(F)c(OC(F)(F)F)c3)(CC1)[C@@H](O)C2` [Compound 772, 2-(4-chloro-3-fluorophenoxy)-N-[(3S)-4-{2-[4-fluoro-3-(trifluoromethoxy)phenoxy]acetamido}-3-hydroxybicyclo[2.2.2]octan-1-yl]acetamide], the EC50 was below 10 nM.

As for `O=C(COc1ccc(Cl)c(F)c1)NC12CC(COc3ccccc3)(C1)C2` [Compound 612, 2-(4-chloro-3-fluorophenoxy)-N-[3-(phenoxymethyl)bicyclo[1.1.1]pentan-1-yl]acetamide], the EC50 is above 2000 nM. Regarding `Cc1ccc(COCC(=O)NC23CC(NC(=O)COc4ccc(Cl)c(F)c4)(C2)C3)cc1` [Compound 144, 2-(4-chloro-3-fluorophenoxy)-N-(3-{2-[(4-methylphenyl)methoxy]acetamido}-bicyclo[1.1.1]pentan-1-yl)acetamide], the EC50 was in the range of 250 to 500 nM. For `O=C(COc1ccc(F)c(Cl)c1)NC12CC(NC(=O)COc3ccc(Cl)c(Cl)c3)(C1)C2` [Compound 533, 2-(3-chloro-4-fluorophenoxy)-N-{3-[2-(3,4-dichlorophenoxy)acetamido]bicyclo[1.1.1]pentan-1-yl}acetamide], the EC50 is below 10 nM.

In the case of `CS(=O)(=O)c1ccc(OCC(=O)NC23CC(NC(=O)COc4ccc(Cl)c(F)c4)(C2)C3)cc1` [Compound 127, 2-(4-chloro-3-fluorophenoxy)-N-(3-{2-[4-(methanesulfonyl)-phenoxy]acetamido}-bicyclo[1.1.1]pentan-1-yl)acetamide], the EC50 was 500 to 2000 nM.

For `O=C(COc1ccc(Cl)c(F)c1)NC12CC(NS(=O)(=O)CCc3ccc(F)cc3)(C1)C2` [Compound 480, 2-(4-chloro-3-fluorophenoxy)-N-(3-{[2-(4-fluorophenyl)ethanesulfonyl]amino}bicyclo[1.1.1]pentan-1-yl)acetamide], the EC50 was above 2000 nM.

As to `O=C(COc1ccc(Cl)c(F)c1)NC12CCC(NC(=O)COc3ccc(Cl)c(F)c3)(C1)C2` [Compound 177, N,N′-(bicyclo[2.1.1]hexane-1,4-diyl)bis[2-(4-chloro-3-fluorophenoxy)acetamide]], the EC50 was below 10 nM.

As to `O=C(COc1ccc(Cl)c(F)c1)NC12CCC(NC(=O)COc3cncc(C(F)(F)F)c3)(CC1)C(O)C2` (stereo not shown) [Compound 306, 2-(4-chloro-3-fluorophenoxy)-N-[3-hydroxy-4-(2-{[5-(trifluoromethyl)pyridin-3-yl]oxy}acetamido)bicyclo[2.2.2]octan-1-yl]acetamide], the EC50 is below 10 nM. Regarding `O=C(COc1ccc(Cl)c(F)c1)NC12CCC(NC(=O)COc3ccc(Cl)c(F)c3)(CC1)C(=O)C2` [Compound 272, N,N′-(2-oxobicyclo[2.2.2]octane-1,4-diyl)bis[2-(4-chloro-3-fluorophenoxy)acetamide]], the EC50 is below 10 nM.
